These results are taken from PubChem BioAssay AID790 (SRMLSC, 2007).

Experiment [1] deals with S. cerevisiae vps1Δ mutant growth inhibition. Description: growth inhibition of yeast vps1Δ mutant, dose response, S. cerevisiae, background strain comparison (AID 790).
Assay in experiment [2]: as above
To be noted: S. cerevisiae vps1Δ mutant growth inhibition; measured here: background strain growth inhibition.

pIC50: −log10 of the molar value. Calls of active or inactive are those of the source. How the calls were made is not given here.

On to `FC(F)(F)COc1nc(N2CCCCC2)nc(N2CCNCC2)n1`, for which the IC50 in experiment [1] is > 10 µM (inactive). The molecule further gave a negative logarithm of the IC50 (pIC50) in experiment [2] of less than 5.00.

Regarding `CCN1CCN(c2c(Cl)cccc2NC(=O)c2ccc(Br)o2)CC1`, in experiment [1], the IC50 was > 10 µM (inactive). Further, the negative logarithm of the IC50 (pIC50) in experiment [2] is less than 5.00.

Consider `CCN(CC)C(=O)C1CCN(Cc2ccc(Br)cc2)CC1`, for which the IC50 in experiment [1] was > 10 µM (inactive). This molecule gave a pIC50 in experiment [2] of less than 5.00.

In the case of `N#Cc1cn(-c2ccccc2)nc1-c1cc2ccccc2oc1=O`, the IC50 in experiment [1] is > 10 µM (inactive). In addition, the pIC50 in experiment [2] was less than 5.00.

`CC(=O)Nc1ccccc1NS(=O)(=O)c1ccc(Cl)cc1`: in experiment [1], the IC50 is > 10 µM (inactive). The molecule also showed a pIC50 in experiment [2] of less than 5.00.

On to `COc1ccccc1N1CCN(CC(O)c2ccc3cc[nH]c3c2)CC1` (stereo not drawn), for which, in experiment [1], the IC50 was > 10 µM (inactive). In experiment [2], this molecule had a pIC50 of less than 5.00.

On to `Cc1ccc(C(=O)OCn2ncc(Cl)c(Cl)c2=O)cc1`, for which the values for the pIC50 in experiment [1] and in experiment [2] were 5.39 and 5.34, respectively.

In the case of `Cc1nnc(-c2cccc(Br)c2)c2cn(-c3ccccc3)nc12`, the IC50 in experiment [1] was > 10 µM (inactive). Besides, in experiment [2], the pIC50 is less than 5.00.

Turning to `C=CCc1ccccc1OCC(O)CN1CCN(Cc2ccc3c(c2)OCO3)CC1` (stereo not drawn), the IC50 in experiment [1] is > 10 µM (inactive). In experiment [2], this molecule had a negative logarithm of the IC50 (pIC50) of less than 5.00.

For the molecule `Cc1cc(C)nc(N/N=C/C(Cl)=C/c2ccccc2)n1`, in experiment [1], the IC50 is > 10 µM (inactive). This molecule also had a pIC50 in experiment [2] of less than 5.00.

`N=c1c2c(-c3ccccc3)c(-c3ccccc3)n(Cc3ccco3)c2ncn1Cc1ccco1`: the IC50 in experiment [1] is > 10 µM (inactive). The molecule also had a negative-log IC50 (pIC50) in experiment [2] of 4.67.

With `CCc1cc2c(=O)c(Oc3ccccc3F)c(C)oc2c(CN(C)C)c1O`, in experiment [1], the IC50 is > 10 µM (inactive). In addition, in experiment [2], the pIC50 is less than 5.00.

Consider `Cc1ccc(S(=O)(=O)N2CCN(C3CCN(Cc4ccccc4)CC3)CC2)cc1`, for which the IC50 in experiment [1] was > 10 µM (inactive). Further, the pIC50 in experiment [2] was less than 5.00.

For the molecule `COc1ccc(NC(=S)NC(NC(=O)c2ccc(Cl)cc2Cl)C(Cl)(Cl)Cl)c([N+](=O)[O-])c1` (stereo not drawn), the IC50 in experiment [1] was > 10 µM (inactive). Also, in experiment [2], the negative-log IC50 (pIC50) was less than 5.00.

For the molecule `Nc1cc(N)c(OCC(F)(F)F)cc1OCC(F)(F)F`, the IC50 in experiment [1] was > 10 µM (inactive). In experiment [2], this molecule gave a negative-log IC50 (pIC50) of less than 5.00.

Take `O=C(NC1CCCC1)C(c1ccsc1)N(C(=O)Cc1cccs1)c1ccc(F)cc1` (stereo not drawn): in experiment [1], the IC50 was > 10 µM (inactive). In experiment [2], this molecule gave a negative-log IC50 (pIC50) of less than 5.00.

As for `CCc1ccc(C(=O)/C=C/c2ccc([N+](=O)[O-])o2)cc1`, the pIC50 is 5.67 in experiment [1] and 4.68 in experiment [2].

Turning to `O=C(CC(=O)c1cc(Cl)ccc1O)c1ccccc1`, the pIC50 in experiment [1] is 5.68; in experiment [2], 4.90.

Regarding `C=C(C)COc1ccc(-c2ncncc2Oc2ccc(OC)cc2)c(O)c1`, in experiment [1], the IC50 is > 10 µM (inactive). The same molecule gave a negative logarithm of the IC50 (pIC50) in experiment [2] of less than 5.00.

As to `Cc1cc(C(C)(C)C)ccc1OCCN1CCCC1`, the IC50 in experiment [1] is > 10 µM (inactive). The same molecule had a pIC50 in experiment [2] of less than 5.00.

With `N#CC1=C(N)NC(SCc2ccc(F)cc2)=C(C#N)C12CCCCC2`, the pIC50 in experiment [1] was 5.67; in experiment [2], 4.79.

`O=S(=O)(c1cnccc1N1CCN(/N=C/c2ccc(Br)cc2)CC1)N1CCCCC1`: the IC50 in experiment [1] was > 10 µM (inactive). The same molecule had a negative-log IC50 (pIC50) in experiment [2] of less than 5.00.

For the molecule `Cc1ccc2nc(C)cc(OCC(=O)O)c2c1`, in experiment [1], the IC50 is > 10 µM (inactive). This molecule showed a negative logarithm of the IC50 (pIC50) in experiment [2] of less than 5.00.

As for `COCCNC(=O)C(c1ccc(F)cc1)N(CC1CCCO1)C(=O)CCC(=O)Nc1ccccn1` (stereo not drawn), the IC50 in experiment [1] is > 10 µM (inactive). In addition, the negative-log IC50 (pIC50) in experiment [2] was less than 5.00.

For `O=C(OCn1ncc(Cl)c(Cl)c1=O)c1ccccc1Cl`, the figures for the negative logarithm of the IC50 (pIC50) in experiment [1] and in experiment [2] were 5.27 and 4.78, respectively.

For the molecule `CCOC(=O)C(C)Oc1ccc2c(C)cc(=O)oc2c1C(C)=O` (stereo not drawn), the IC50 in experiment [1] is > 10 µM (inactive). The molecule also had a negative-log IC50 (pIC50) in experiment [2] of less than 5.00.

On to `CCCC(=O)N1CCN(c2ccc(NC(=O)c3cc4ccccc4o3)cc2Cl)CC1`, for which the IC50 in experiment [1] was > 10 µM (inactive). The molecule further had a pIC50 in experiment [2] of 4.72.

`CCOC(=O)c1cccnc1SCc1cc(=O)n2ccccc2n1`: the IC50 in experiment [1] was > 10 µM (inactive). In experiment [2], this molecule gave a pIC50 of less than 5.00.

As for `O=C(CCl)c1ccc(Cc2ncc(C(F)(F)F)cc2Cl)s1`, the IC50 in experiment [1] was 9.7 µM (inactive). This molecule also had a negative-log IC50 (pIC50) in experiment [2] of 5.06.
